Experiments:
[1] = Water solubility by HPLC, amorphous vs crystalline ivermectin; assay type: physicochemical; details: for peak on the HPLC chromatogram (water solubility): LOD of the HPLC method
Excerpt: This confirms that the amorphous form is more water soluble than the known crystalline form.

[2] = Solid-state stability of the amorphous form on storage (XRPD); assay type: physicochemical
Excerpt: By stable we mean that the amorphous form is maintained after a certain period of time under certain environmental conditions. We have data confirming that the product maintains its amorphous form at room temperature for at least 3.5 months.
X-ray diffraction (XRPD) analysis was made with PANalytical Empyrean equipped with copper tube and PIXel1D-Medpix3 detector (Malvern Panalytical, UK).

Substance | water solubility relative to the crystalline form [1] | peak on the HPLC chromatogram (water solubility) ([1]; listed as amorphous form) | amorphous character after storage (XRPD, FIG. 7) ([2]; 3 months in the freezer followed by 3.5 months at room temperature (25° C.)) | time for which the product maintains its amorphous form ([2]; room temperature) | peak on the HPLC chromatogram (water solubility) [1]
ivermectin [amorphous ivermectin] | higher than its corresponding crystalline form | small, but visible peak | amorphous character is maintained | at least 3.5 months | 
ivermectin [known crystalline form, reference compound] |  |  |  |  | no visible peak

From US20210023111A1, “Novel Form of Invermectin and a Process for Making it” (Hovione Scientia Limited, priority 2018, published 2021)
